Read-outs that look alike come from different tables or passages of the source.
Tests used:
[1] = system: chloroquine-sensitive (CQS) NF54 strain of Plasmodium falciparum; assay: In vitro antiplasmodial assay (parasite lactate dehydrogenase), NF54 strain; assay type: cell-based; conditions: for activity in the sensitive strain (in words): NF54 strain
Experimental: (§1) Continuous in vitro cultures of asexual erythrocyte stages of P. falciparum were maintained using a modified method by Trager and Jensen. Quantitative assessment of the antiplasmodial activity in vitro was determined via the parasite lactate dehydrogenase assay using a modified method described by Makler. […] Samples were tested as a suspension if not completely dissolved. Stock solutions were stored at −20 °C. Further dilutions were prepared on the day of the experiment. […] The vitamin B12 complexes were tested at starting concentrations up to 50 μg/ mL, which was then serially diluted 2-fold in complete medium to give 10 concentrations. The ligands were tested at a starting concentration of 10 μg/mL, which was serially diluted 2-fold in complete medium to give 10 concentrations. […] The IC50 values were obtained using a non-linear dose-response curve fitting analysis via Graph Pad Prism v.5.0 software (GraphPad Software Inc., San Diego, CA, USA).

[2] = system: chloroquine-resistant (CQR) K1 strain of Plasmodium falciparum; assay: In vitro antiplasmodial assay (parasite lactate dehydrogenase), K1 strain; assay type: cell-based; conditions: for Resistance Index (RI): RI = IC50 (CQR)/IC50 (CQS); for activity against the CQR K1 strain relative to CQS (in words): resistance indices very close to unity
Experimental: as §1

[3] = system: human lung fibroblasts (MRC5) cell line; assay: In vitro cytotoxicity, MTT assay, MRC5; assay type: cell-based; conditions: 48 h, 5 to 200 μM, read-out: IC50 against MRC5
Experimental: (§2) B12-JR1 was screened for in vitro cytotoxicity against the Chinese Hamster Ovarian (CHO) cell-line using the 3-(4,5-dimethylthiazol-2-yl)-2,5-diphenyltetrazolium bromide (MTT)-assay. The test sample was prepared to a 20 mg mL^−1 stock solution in 100% DMSO and tested in triplicate. Stock solutions were stored at −20 °C. Further dilutions were prepared in complete medium on the day of the experiment. Samples were tested as a suspension if not completely dissolved. Emetine was used as the reference drug in all experiments. The initial concentration of emetine was 100 µg mL^−1, which was diluted in complete medium with 10-fold dilutions to give 6 concentrations, the lowest being 0.001 µg mL^−1. The same dilution technique was applied to all test samples. The highest concentration of solvent to which the cells were exposed to have no measurable effect on the cell viability. […] Furthermore, the cytotoxicity in terms of the antiproliferative effect of B12-JR1, B12-JR2 and B12-JR3 were similarly evaluated by the MTT assay. The assay was carried out using human lung fibroblasts (MRC5) cell line after 48 h of cell incubation in the medium, containing compounds at concentrations ranging from 5 to 200 μM. […] The results were expressed as mean values ± standard deviation (SD) and analysed using Student’s t-test at a threshold level of p = 0.05. […]

[4] = system: Chinese Hamster Ovarian (CHO) cell-line; assay type: cell-based
Experimental: as §2

[5] = system: zebrafish (Danio rerio) embryos; assay: Zebrafish embryo toxicity (lethal, developmental, cardiotoxicity); conditions: 6 to 120 hpf; for toxicity in zebrafish embryos (survival/teratogenicity, in words): doses up to 150 µM
Experimental: The toxicity evaluation of B12-JR1, B12-JR1-CBC and vitamin B12 in the zebrafish model was carried out according to general rules of the OECD Guidelines for the Testing of Chemicals. […] Embryos of wild type zebrafish (Danio rerio, AB strain) were raised in a temperature- and light-controlled zebrafish facility with 28 °C and standard 14:10-h light-dark photoperiod, and regularly fed with commercially dry flake food (TetraMin™ flakes; Tetra Melle, Germany) twice a day and Artemia nauplii once daily. Zebrafish embryos were produced by the pair-wise mating, collected and distributed into 24-well plates containing 10 embryos per well and 1 mL embryos water (0.2 g L^−1 of Instant Ocean® Salt in distilled water), and raised at 28 °C. […] Experiments were performed three times using 30 embryos per concentration. Apical endpoints for the toxicity evaluation (Table S1) were recorded at 24, 48, 72, 96 and 120 hpf using an inverted microscope (CKX41; Olympus, Tokyo, Japan). […] Experiments were performed three times using 5 embryos per concentration. The hepatotoxicity was determined according to the change of liver area index compared to the control group, calculated as the ration between liver area and embryonic lateral area x 100%, as reported by Zhang et al.. In addition, the liver colour and retention of yolk were followed as the phenotypic signs of hepatotoxicity.

[6] = system: liver of Tg(fabp10:EGFP) zebrafish embryos; assay: Zebrafish hepatotoxicity, transgenic Tg(fabp10:EGFP) embryos; assay type: in vivo, Danio rerio; conditions: 150 µM
Experimental: (§3) Because liver toxicity presents one of the most common drawbacks of the drugs approved for the human use, the drugs synthesized in this study were examined for the possible hepatotoxicity in vivo. The transgenic Tg(fabp:EGFP) zebrafish embryos exposed at 72 hpf (a stage when the liver is becoming vascularized and performing metabolic transformation of the absorbed compounds) to the synthesized drugs were evaluated for the liver colour (a possible necrosis sign), size, fluorescence and the liver area index ([…]). These are all parameters commonly used for hepatotoxicity evaluation and to follow the effect of applied therapies on the liver function.
Dead embryos were counted and discarded every 24 h.

[7] = system: Tg(fabp10:EGFP) zebrafish embryos; assay: Zebrafish bio-distribution, transgenic Tg(fabp10:EGFP) embryos; assay type: in vivo, Danio rerio
Experimental: as §3
To verify a preferential accumulation of B12-JR1-CBC in the liver, the compound was applied intravenously (parenteral use) to zebrafish embryos.

blood stage = conditions: cited from earlier work
[8] = Plasmodium falciparum, CQS NF54 strain, asexual erythrocyte stages, triplicate, na = not active at the tested concentration, read-out: NF54 IC50 ± SD
[9] = Plasmodium falciparum, CQR K1 strain, asexual erythrocyte stages, triplicate, read-out: K1 IC50 ± SD
[10] = CQS NF54 strain, asexual erythrocyte stages, triplicate, na = not active at the tested concentration, read-out: NF54 IC50 ± SD
[11] = CQR K1 strain, asexual erythrocyte stages, triplicate, read-out: K1 IC50 ± SD

## Cobalamin-2-(4-(4-ethynylphenyl)-1H-1,2,3-triazol-1-yl)-1-(2-(4-fluorophenyl)-3-((4-fluorophenyl)amino)-8,8-dimethyl-5,6-dihydroimidazo[1,2-a]pyrazin-7(8H)-yl)ethan-1-one [Compound B12-SN1]
[1]
  activity in the sensitive strain (in words): inactive

## CCN(CC)CCCC(C)Nc1ccnc2cc(Cl)ccc12 (centres unmarked) [CQ, chloroquine, reference compound]
[1]; Plasmodium falciparum, NF54, Erythrocyte, read-out: NF54 IC50 ± SD
  IC50: 0.013 ± 0.001 µM
[2]; Plasmodium falciparum, K1, Erythrocyte, read-out: K1 IC50 ± SD
  IC50: 0.4 ± 0.04 µM

## C#Cc1ccc(-c2cn(CC(=O)N3CCn4c(nc(-c5ccc(F)cc5)c4Nc4ccc(F)cc4)C3(C)C)nn2)cc1 [SN1, 2-(4-(4-ethynylphenyl)-1H-1,2,3-triazol-1-yl)-1-(2-(4-fluorophenyl)-3-((4-fluorophenyl)amino)-8,8-dimethyl-5,6-dihydroimidazo[1,2-a]pyrazin-7(8H)-yl)ethan-1-one]
[1]
  activity in the sensitive strain (in words): inactive

## C#Cc1ccc(-c2cn(CCNc3ccnc4cc(Cl)ccc34)nn2)c(F)c1 [JR3, 7-chloro-N-(2-(4-(4-ethynyl-2-fluorophenyl)-1H-1,2,3-triazol-1-yl)ethyl)quinolin-4-amine]
[1]
  activity in the sensitive strain (in words): good activity
[1]; [8]
  IC50: 0.19 ± 0.02 µM
[2]; [9]
  IC50: 0.21 ± 0.02 µM
[2]
  Resistance Index (RI): 1.1

## cobalamin-7-chloro-N-(2-(4-(4-ethynylphenyl)-1H-1,2,3-triazol-1-yl)ethyl)quinolin-4-amine [Compound B12-JR1]
[1]; [10]
  IC50: 6.27 ± 0.37 µM
[1]; Table 2, in vitro data obtained in the cell-based assay, read-out: IC50 NF54
  IC50: 6.3 µM
[2]; [11]
  IC50: 9.18 ± 0.85 µM
[2]
  Resistance Index (RI): 1.5
  activity against the CQR K1 strain relative to CQS (in words): equally active
[2]; Table 2, in vitro data obtained in the cell-based assay, read-out: IC50 K1
  IC50: 9.2 µM
[3]
  IC50: 70 µM
[4]
  toxicity against CHO cells (in words): not to be toxic
[5]
  toxicity in zebrafish embryos (survival/teratogenicity, in words): neither toxic
[5]; zebrafish model
  LC50: > 150 µM
[6]; exposure 72–120 hpf
  liver area index (in words): did not affect the liver area index
  liver size and fluorescence (in words): no changes in the liver size and fluorescence
[6]; dose 16–24 higher than the one active against Plasmodium strains
  hepatotoxicity (in words): not hepatotoxic
[7]; 150 µM, 106–120 hpf
  organ distribution when applied in the embryo water (in words): preferential accumulation of both compounds in the liver
[7]; after the exposure period, 150 µM of B12-JR1 and 20 µM B12-JR1-CBC
  effect on liver development (in words): did not affect the liver development
[7]; parenteral, microinjected at 106 hpf, analysed at 120 hpf
  organ distribution after microinjection into the blood circulation (in words): solely detected in the liver

## C#Cc1ccc(-c2cn(CCNc3ccnc4cc(Cl)ccc34)nn2)cc1F [JR2, 7-chloro-N-(2-(4-(4-ethynyl-3-fluorophenyl)-1H-1,2,3-triazol-1-yl)ethyl)quinolin-4-amine]
[1]
  activity in the sensitive strain (in words): good activity
[1]; [8]
  IC50: 0.15 ± 0.01 µM
[2]; [9]
  IC50: 0.16 ± 0.01 µM
[2]
  Resistance Index (RI): 1.1

## cobalamin-7-chloro-N-(2-(4-(4-ethynyl-3-fluorophenyl)-1H-1,2,3-triazol-1-yl)ethyl)quinolin-4-amine [Compound B12-JR2]
[1]; [10]
  IC50: 4.73 ± 0.32 µM
[2]; [11]
  IC50: 6.02 ± 0.71 µM
[2]
  Resistance Index (RI): 1.3
  activity against the CQR K1 strain relative to CQS (in words): equally active

## cyanocobalamin [vitamin B12, reference compound]
[5]
  toxicity in zebrafish embryos (survival/teratogenicity, in words): neither toxic

## cobalamin-7-chloro-N-(2-(4-(4-ethynyl-2-fluorophenyl)-1H-1,2,3-triazol-1-yl)ethyl)quinolin-4-amine [Compound B12-JR3]
[1]; [10]
  IC50: 9.68 ± 0.73 µM
[2]; [11]
  IC50: > 15 µM
[2]
  Resistance Index (RI): >1.6

## C/C1=C2/[N-][C@H]([C@H](CC(N)=O)[C@@]2(C)CCC(=O)NC[C@@H](C)OP(=O)([O-])O[C@H]2[C@@H](O)[C@@H](n3cnc4cc(C)c(C)cc43)O[C@@H]2CO)[C@]2(C)N=C(/C(C)=C3N=C(/C=C4N=C1[C@@H](CCC(N)=O)C\4(C)C)[C@@H](CCC(N)=O)[C@]\3(C)CC(N)=O)[C@@H](CCC(N)=O)[C@]2(C)CC(N)=O.[CH2-][C@H]1O[C@@H](n2cnc3c(N)ncnc32)[C@H](O)[C@@H]1O.[Co] [Ado-Cbl, adenosylcobalamin]
Blood stage
  rank of antimalarial activity among naturally occurring Cbls (in words): most active

## C#Cc1ccc(-c2cn(CCNc3ccnc4cc(Cl)ccc34)nn2)cc1 [JR1, 7-chloro-N-(2-(4-(4-ethynylphenyl)-1H-1,2,3-triazol-1-yl)ethyl)quinolin-4-amine]
[1]
  activity in the sensitive strain (in words): good activity
[1]; [8]
  IC50: 0.14 ± 0.01 µM
[2]; [9]
  IC50: 0.18 ± 0.02 µM
[2]
  Resistance Index (RI): 1.3

From paper PMC6630517 (Molecules, 2019)
